≈ marks a conversion by molar mass, not a printed value. Calls of active or inactive are those of the source. No cut-off for these calls is given here.

Consider one compound from ChEMBL document CHEMBL4011620, “Design and Discovery of N-(2-Methyl-5'-morpholino-6'-((tetrahydro-2H-pyran-4-yl)oxy)-[3,3'-bipyridin]-5-yl)-3-(trifluoromethyl)benzamide (RAF709): A Potent, Selective, and Efficacious RAF Inhibitor Targeting RAS Mutant Cancers” (J Med Chem, 2017).

The nature of data set [1]: Oral bioavailability in dog at 1 mg/kg. The data set is classed as ADME, organism-based, Canis lupus familiaris. As to conditions: in vivo.
A short description of data set [2]: Clearance in rat at 3 mg/kg, iv or 10 mg/kg, po. Type of data set: ADME, organism-based. The following applies: in vivo.
A further data set deals with PC-3. Kind of data set: Antitumor activity against human PC3 cells xenografted in nude mouse assessed as reduction in tumor volume at 200 mg/kg/day, po dosed on day 12 continued until day 25 post implantation. Type of data set: functional, organism-based.
The test system of data set [3] is Mus musculus. The experiment in a line: In vivo inhibition of ERK phosphorylation at Thr202/Tyr204 and Thr185/Tyr187 in mouse xenografted with human Calu6 cells at 10 mg/kg, po administered as single dose measured at 24 hrs post dose. Type of data set: functional, organism-based.
Data set [4] concerns the target RAF proto-oncogene serine/threonine-protein kinase (Homo sapiens, UniProt P04049). Kind of data set: Activation of CRAF in human Calu6 cells assessed as increase in MEK phosphorylation after 2 hrs by FRET assay. The data set is classed as cell-based.
A short description of data set [5]: Oral bioavailability in rat at 10 mg/kg. Type of data set: ADME, organism-based. As to conditions: in vivo.
The nature of data set [6]: Apparent permeability across basolateral to apical side in human Caco2 cells at pH 7.4 by LC/MS/MS analysis. As to conditions: Caco-2, pH 7.4.
The next data set deals with Calu-6. The experiment in a line: Antiproliferative activity against human Calu6 cells harboring KRAS Q61K mutant assessed as reduction cell viability after 72 hrs by CellTiter-Glo assay. The data set is classed as functional, cell-based. As to conditions: Calu-6, 72 h.
For data set [7], the target named is Platelet-derived growth factor receptor alpha (Homo sapiens) (UniProt P16234). Kind of data set: Binding affinity to human PDGFRalpha (330 to 640 residues) expressed in mammalian expression system at 1 uM by kinome scan assay relative to control.
Platelet-derived growth factor receptor alpha (Homo sapiens), sequence (P16234 whole entry, the tested form may be a part): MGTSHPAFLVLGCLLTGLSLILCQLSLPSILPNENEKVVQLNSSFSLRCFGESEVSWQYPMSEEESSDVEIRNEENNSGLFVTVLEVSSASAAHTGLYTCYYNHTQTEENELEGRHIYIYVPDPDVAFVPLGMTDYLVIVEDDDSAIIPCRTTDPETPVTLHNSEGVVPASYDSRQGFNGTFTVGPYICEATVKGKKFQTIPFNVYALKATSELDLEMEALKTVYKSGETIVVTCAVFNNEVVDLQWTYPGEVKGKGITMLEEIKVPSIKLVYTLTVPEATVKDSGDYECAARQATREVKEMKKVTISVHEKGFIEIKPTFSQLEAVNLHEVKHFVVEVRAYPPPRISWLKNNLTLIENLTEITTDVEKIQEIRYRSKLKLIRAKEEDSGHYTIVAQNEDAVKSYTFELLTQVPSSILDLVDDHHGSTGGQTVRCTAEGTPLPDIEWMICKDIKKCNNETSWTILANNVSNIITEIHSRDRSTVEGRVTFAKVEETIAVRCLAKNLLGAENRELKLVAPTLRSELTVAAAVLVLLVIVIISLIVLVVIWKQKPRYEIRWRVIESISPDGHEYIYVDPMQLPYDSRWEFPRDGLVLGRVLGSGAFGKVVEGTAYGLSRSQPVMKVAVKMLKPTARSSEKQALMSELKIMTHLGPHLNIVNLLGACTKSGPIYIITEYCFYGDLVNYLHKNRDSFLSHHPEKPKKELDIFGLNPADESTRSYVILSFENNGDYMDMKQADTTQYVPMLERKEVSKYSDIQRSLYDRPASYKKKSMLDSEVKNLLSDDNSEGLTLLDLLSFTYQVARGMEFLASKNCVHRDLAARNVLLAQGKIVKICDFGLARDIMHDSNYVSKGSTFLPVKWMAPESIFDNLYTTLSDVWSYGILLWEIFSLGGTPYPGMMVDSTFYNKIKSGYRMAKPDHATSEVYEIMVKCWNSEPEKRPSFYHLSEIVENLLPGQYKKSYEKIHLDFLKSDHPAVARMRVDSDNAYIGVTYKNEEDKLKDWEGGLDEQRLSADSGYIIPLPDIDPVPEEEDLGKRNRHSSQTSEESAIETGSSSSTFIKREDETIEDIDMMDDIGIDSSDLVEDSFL
Data set [8] in a line: Cmax in rat at 10 mg/kg, po. Type of data set: ADME, organism-based. Details: dose 10 mg/kg, route oral. As to conditions: in vivo.
The nature of data set [9]: Metabolic stability in rat plasma after 3 hrs. Type of data set: ADME, cell-free. The following applies: read-out: Stability.
Data set [10] in a line: Solubility of compound at pH 6.8 by shake-flask assay. The following applies: buffer.
Data set [11] in a line: AUC (infinity) in rat at 10 mg/kg, po. Type of data set: ADME, organism-based. Details: dose 10 mg/kg, route oral, time infinity. The following applies: in vivo.
Data set [12] is described as follows: Protein binding in human plasma. The data set is classed as ADME, cell-free. As to conditions: read-out: PPB (converted).
Data set [13] has as its system Mus musculus. The experiment in a line: Toxicity in nude mouse xenografted with human Calu6 cells assessed as mortality at 10 to 200 mg/kg/day, po administered for 15 days starting on day 12 post tumor implantation. Type of data set: organism-based. As to conditions: in vivo, 360 h.
Data set [14] concerns Mus musculus. Kind of data set: In vivo inhibition of ERK1/2 phosphorylation at Thr202/Tyr204 and Thr185/Tyr187 in mouse xenografted with human Calu6 cells at 10 to 30 mg/kg, po administered as single dose measured at 24 hrs post dose. Type of data set: functional, organism-based.
A short description of data set [15]: Cmax in mouse at 3 mg/kg, po. Type of data set: ADME, organism-based. On the set-up: dose 3 mg/kg, route oral. The following applies: in vivo.

RAF proto-oncogene serine/threonine-protein kinase, sequence (P04049 whole entry): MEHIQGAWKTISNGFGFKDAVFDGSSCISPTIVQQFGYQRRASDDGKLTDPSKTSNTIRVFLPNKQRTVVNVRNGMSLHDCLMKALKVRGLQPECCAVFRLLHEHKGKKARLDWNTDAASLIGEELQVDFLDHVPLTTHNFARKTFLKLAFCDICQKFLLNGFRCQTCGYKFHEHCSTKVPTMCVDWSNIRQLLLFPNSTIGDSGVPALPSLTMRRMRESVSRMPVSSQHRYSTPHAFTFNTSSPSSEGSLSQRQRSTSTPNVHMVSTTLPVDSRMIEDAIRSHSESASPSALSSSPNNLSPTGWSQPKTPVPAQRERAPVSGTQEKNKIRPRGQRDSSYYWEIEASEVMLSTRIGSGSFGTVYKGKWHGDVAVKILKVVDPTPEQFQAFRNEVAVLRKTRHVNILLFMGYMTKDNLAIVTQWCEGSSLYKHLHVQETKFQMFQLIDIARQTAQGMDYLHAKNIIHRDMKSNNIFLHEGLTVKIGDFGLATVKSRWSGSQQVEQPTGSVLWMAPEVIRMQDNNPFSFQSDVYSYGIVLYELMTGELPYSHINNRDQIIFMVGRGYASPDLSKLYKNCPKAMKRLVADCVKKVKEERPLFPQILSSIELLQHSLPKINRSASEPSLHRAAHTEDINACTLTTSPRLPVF

As for `Cc1ncc(NC(=O)c2cccc(C(F)(F)F)c2)cc1-c1cnc(OC2CCOCC2)c(N2CCOCC2)c1`, the bioavailability in [1] was 48%; in [5], 24%. In [2], this compound showed a clearance of 50 mL/min/kg. Besides, in the data set with PC-3, the outcome was inactive. For the same compound, the inhibition result in the data set on Mus musculus [3] and in the data set on Mus musculus [14] was “inactive” each time. The Activity result is “Not Active” in data set [4], 96% in data set [7] and “Non-Toxic” with Mus musculus [13]. The Papp B→A in data set [6] came out at 13 ×10⁻⁶ cm/s. In the data set on Calu-6, the half-maximal effective concentration (EC50) is 950 nM. The results for the Cmax in [8] and in [15] were 800 nM and 1000 nM, respectively. Besides, the remaining at 3 h in data set [9] was found to be 85%. Moreover, the solubility (thermodynamic) in data set [10] came to 200 µM (≈ 109 µg/mL). In addition, the area under the curve AUC(0-inf) in data set [11] came to 1.5 µM·h. Besides, the fraction unbound in data set [12] is 0.02.
